In PMC9737391, “Trifluoromethylcinnamanilide Michael Acceptors for Treatment of Resistant Bacterial Infections” (International Journal of Molecular Sciences, 2022):
Converted amounts (≈) assume the structure as drawn. “And” between values parts separate entries of the source, which are not always exact repeats. Equal entries are not always repeated.

Legend:
[1] = test system: Staphylococcus aureus ATCC 29213; assay: MBC, agar aliquot subculture method; assay type: cell-based; conditions: ATCC29213, S. aureus ATCC 29213
[2] = test system: Staphylococcus aureus ATCC 29213; assay: MIC, microtitration broth method; assay type: cell-based; conditions: ATCC29213, S. aureus ATCC 29213
M. smegmatis ATCC 700084 = assay: In vitro antimycobacterial evaluation (MIC); assay type: cell-based, Mycobacterium smegmatis; conditions: Mycolicibacterium smegmatis, ATCC700084
[3] = test system: methicillin-resistant S. aureus SA 630 (MRSA2); assay: MBC, agar aliquot subculture method; assay type: cell-based; conditions: Staphylococcus aureus; MRSA SA 630
[4] = test system: methicillin-resistant S. aureus 63718 (MRSA3); assay: MBC, agar aliquot subculture method; assay type: cell-based; conditions: Staphylococcus aureus; MRSA 63718
[5] = Lipophilicity determination by RP-HPLC; assay type: physicochemical; conditions: RP-HPLC, logarithm of capacity factor k
Method: It is evident from the graphs in Figure 1 that the correlation coefficients of the dependences of log k/log D6.5/log D7.4 have a value of r = 0.999 (n = 32), which means that the investigated compounds behave insignificantly differently in aqueous media with different pH. Moreover, lipophilicity was calculated as log P and Clog P using two prediction programs. […] Therefore, only log P values predicted by ACD/Percepta can be used for correlations with experimental values. These matches are shown in the graphs in Figure 2, and according to the correlation coefficient r~0.940 (n = 32), it can be argued that even the predicted lipophilicity values correlate with the experimentally measured ones. However, the largest variations were observed (no difference for series 1, 2) for compounds substituted with 2-Cl, 2-CF3, 2,5-Cl, 4-F, 4-CF3, and 3,5-F, 3,5-Cl. These are mainly substituents capable of forming hydrogen and other types of non-bonding interactions both with the surrounding environment and within the molecule. Overall, series 1 (3-CF3) is less lipophilic than series 2 (4-CF3), but the differences in the experimental data are insignificant. Unsubstituted derivatives 1a/2a are the least lipophilic compounds, while derivatives 1o/2o (3,5-Cl) and 1p/2p (3,5-CF3) are the most lipophilic compounds.
Experimental determination of lipophilicity values (log k, log D6.5, and log D7.4) was performed under the same conditions and on the same device as described by Strharsky et al..

[6] = test system: methicillin-resistant S. aureus SA 3202 (MRSA1); assay: MIC, microtitration broth method; assay type: cell-based; conditions: Staphylococcus aureus; MRSA SA 3202
[7] = test system: methicillin-resistant S. aureus 63718 (MRSA3); assay: MIC, microtitration broth method; assay type: cell-based; conditions: Staphylococcus aureus; MRSA 63718
[8] = test system: methicillin-resistant S. aureus SA 3202 (MRSA1); assay: MBC, agar aliquot subculture method; assay type: cell-based; conditions: Staphylococcus aureus; MRSA SA 3202
[9] = test system: human monocytic leukemia cell line THP-1; assay: In vitro cell viability (cytotoxicity screening); assay type: cell-based; conditions: 24 h, medium with 10% FBS, ± SD, n = 6
Method: The investigated anilides can be divided into three groups. […] Higher concentrations (than 10 or 30 µM) were not possible to evaluate due to precipitation of the tested compounds in water medium. Based on all these observations, it can be concluded that the high antimicrobial activity of 3,5-CF3-substituted compounds is associated with significant cytotoxic effect against eukaryotic cells. On the other hand, the other still effective compounds, especially agents 1j and 1o, have an insignificant toxic effect, which makes them interesting for further study.
Human monocytic leukemia THP-1 cells obtained from the European Collection of Cell Cultures (ECACC, Salisbury, UK) were used for in vitro antiproliferative assays. A recently described procedure was used.

[10] = test system: methicillin-resistant S. aureus SA 630 (MRSA2); assay: MIC, microtitration broth method; assay type: cell-based; conditions: Staphylococcus aureus; MRSA SA 630
S. aureus ATCC 29213 = assay: MTT assay, inhibition of bacterial respiration; assay type: cell-based, Staphylococcus aureus
From the text: The MTT assay can be used to assess cell growth by measuring respiration. Respiratory activity of bacterial cells (which is finally reflected in their viability) less than 70% after exposure to the MIC values for each tested compound is considered as a positive result of this assay. This low level of cell oxidative metabolism indicates inhibition of cell growth by inhibition of respiration. The lowest multiples of MIC values that achieved more than 70% inhibition of S. aureus ATCC 29213 viability (%) are shown in Table 3.
The percent inhibition of respiration of S. aureus ATCC 29213 was determined through the MTT assay. The assay was performed as described recently. The percent viability is calculated through the comparison of a measured value and that of the uninhibited control: % viability = OD570E/OD570P × 100, where OD570E is the reading from the compound-exposed cells, while OD570P is the reading from the uninhibited cells (positive control). Cytotoxic potential is determined by a percent viability of <70% [46, 47].

[11] = test system: Enterococcus faecalis ATCC 29212; assay: MBC, agar aliquot subculture method; assay type: cell-based; conditions: ATCC29212, E. faecalis reference strain
[12] = test system: vancomycin-resistant E. faecalis VRE 342B (VRE1); assay: MBC, agar aliquot subculture method; assay type: cell-based, Enterococcus faecalis
[13] = test system: Enterococcus faecalis ATCC 29212; assay: MIC, microtitration broth method; assay type: cell-based; conditions: ATCC29212, E. faecalis reference strain
E. faecalis/VRE = assay: Anti-enterococcal activity, summary over strains; assay type: cell-based, Enterococcus faecalis
[14] = test system: vancomycin-resistant E. faecalis VRE 342B (VRE1); assay: MIC, microtitration broth method; assay type: cell-based, Enterococcus faecalis
[15] = test system: vancomycin-resistant E. faecalis VRE 725B (VRE3); assay: MIC, microtitration broth method; assay type: cell-based, Enterococcus faecalis
[16] = test system: vancomycin-resistant E. faecalis VRE 368 (VRE2); assay: MIC, microtitration broth method; assay type: cell-based, Enterococcus faecalis
[17] = test system: vancomycin-resistant E. faecalis VRE 368 (VRE2); assay: MBC, agar aliquot subculture method; assay type: cell-based, Enterococcus faecalis
[18] = test system: vancomycin-resistant E. faecalis VRE 725B (VRE3); assay: MBC, agar aliquot subculture method; assay type: cell-based, Enterococcus faecalis
S. aureus/MRSA = assay: Antistaphylococcal activity, summary over strains; assay type: cell-based, Staphylococcus aureus
[19] = test system: Mycobacterium marinum CAMP 5644; assay: In vitro antimycobacterial evaluation (MIC); assay type: cell-based; conditions: Mycobacterium marinum, CAMP5644, M. marinum CAMP 5644

Row | Structure (SMILES) | MBC [1] | MIC [2] | MIC (M. smegmatis ATCC 700084) | MBC [3] | MBC [4] | log k [5] | MIC [6] | MIC [7] | melting point | MBC [8] | IC50 [9] | MIC [10] | Conc.: lowest multiple of MIC with at least 70% inhibition of respiratory activity (S. aureus ATCC 29213) | Conc.: the same concentration as multiple of MBC (S. aureus ATCC 29213) | MBC [11] | MBC [12] | MIC [13] | MIC [14] | MIC [15] | MIC [16] | further results
1 | O=C(/C=C/c1cccc(C(F)(F)F)c1)Nc1cccc(F)c1 [1c, (2E)-N-(3-Fluorophenyl)-3-[3-(trifluoromethyl)phenyl]prop-2-enamide] | 25.9 µM (≈ 8.01 µg/mL) | 12.9 µM (≈ 3.99 µg/mL) | 51.7 µM (≈ 16 µg/mL) | 12.9 µM (≈ 3.99 µg/mL) | 12.9 µM (≈ 3.99 µg/mL) | 0.6333 | 25.9 µM (≈ 8.01 µg/mL) | 12.9 µM (≈ 3.99 µg/mL) | 113 to 115 °C | 25.9 µM (≈ 8.01 µg/mL) | > 30 µM | 12.9 µM (≈ 3.99 µg/mL) | 2 × MIC | 1 × MBC |  |  |  |  |  |  | 
2 | O=C(/C=C/c1cccc(C(F)(F)F)c1)Nc1cccc(Cl)c1 [1f, (2E)-N-(3-Chlorophenyl)-3-[3-(trifluoromethyl)phenyl]prop-2-enamide] | 12.3 µM (≈ 4.01 µg/mL) | 12.3 µM (≈ 4.01 µg/mL) | 24.6 µM (≈ 8.01 µg/mL) | 6.14 µM (≈ 2 µg/mL) | 12.3 µM (≈ 4.01 µg/mL) | 0.8016 | 6.14 µM (≈ 2 µg/mL) | 6.14 µM (≈ 2 µg/mL) | 126 to 128 °C | 6.14 µM (≈ 2 µg/mL) | > 10 µM | 6.14 µM (≈ 2 µg/mL) | 1× MIC (1× MBC) | 1× MIC (1× MBC) |  |  |  |  |  |  | 
3 | O=C(/C=C/c1cccc(C(F)(F)F)c1)Nc1ccc(Cl)cc1 [1g, (2E)-N-(4-Chlorophenyl)-3-[3-(trifluoromethyl)phenyl]prop-2-enamide] | 49.1 µM (≈ 16 µg/mL) | 24.6 µM (≈ 8.01 µg/mL) | 24.6 µM (≈ 8.01 µg/mL) | 6.14 µM (≈ 2 µg/mL) | 24.6 µM (≈ 8.01 µg/mL) | 0.7982 | 12.3 µM (≈ 4.01 µg/mL) | 12.3 µM (≈ 4.01 µg/mL) | 162 to 164 °C | 24.6 µM (≈ 8.01 µg/mL) | > 10 µM | 6.14 µM (≈ 2 µg/mL) | 4 × MIC | 2 × MBC |  |  |  |  |  |  | 
4 | O=C(/C=C/c1cccc(C(F)(F)F)c1)Nc1cc(Cl)cc(Cl)c1 [1o, (2E)-N-(3,5-Dichlorophenyl)-3-[3-(trifluoromethyl)phenyl]prop-2-enamide] | 0.694 µM (≈ 0.25 µg/mL) | 0.694 µM (≈ 0.25 µg/mL) | 11.1 µM (≈ 4 µg/mL) | 0.694 µM (≈ 0.25 µg/mL) | 1.39 µM (≈ 0.501 µg/mL) | 1.2028 | 1.39 µM (≈ 0.501 µg/mL) | 0.694 µM (≈ 0.25 µg/mL) | 124 to 126 °C | 2.78 µM (≈ 1 µg/mL) | > 30 µM | 0.694 µM (≈ 0.25 µg/mL) | 0.25× MIC (0.25× MBC) | 0.25× MIC (0.25× MBC) | 22.2 µM (≈ 8 µg/mL) | 22.2 µM (≈ 8 µg/mL) | 11.1 µM (≈ 4 µg/mL) | 22.2 µM (≈ 8 µg/mL) | 22.2 µM (≈ 8 µg/mL) | 22.2 µM (≈ 8 µg/mL) | MIC (E. faecalis/VRE; Enterococcus faecalis, VRE, average over the named compounds and strains, read-out: average MIC against E. faecalis/VRE): ~15 µM (≈ 5.4 µg/mL); anti-enterococcal MICs/MBCs (E. faecalis/VRE; range over E. faecalis and VRE isolates and over the named compounds): 2.34 to 44.5 µM; MBC [17]: 22.2 µM (≈ 8 µg/mL); MBC [18]: 22.2 µM (≈ 8 µg/mL); MIC (S. aureus/MRSA; Staphylococcus aureus, MRSA, average over the named compounds and strains, read-out: average MIC against S. aureus/MRSA): ~1.4 µM (≈ 0.504 µg/mL); antistaphylococcal MICs/MBCs (S. aureus/MRSA; range over S. aureus and MRSA isolates and over the named compounds): 0.15 to 5.57 µM and 0.146 to 5.57 µM
5 | CC1(C)S[C@@H]2[C@H](NC(=O)[C@H](N)c3ccccc3)C(=O)N2[C@H]1C(=O)O [AMP, ampicillin, reference compound] | > 5.72 µM | 5.72 µM (≈ 2 µg/mL) |  | > 45.8 µM | > 45.8 µM |  | 45.8 µM (≈ 16 µg/mL) | 45.8 µM (≈ 16 µg/mL) |  | > 45.8 µM |  | 45.8 µM (≈ 16 µg/mL) | 8× MIC (>8× MBC) | 8× MIC (>8× MBC) | 2.81 µM (≈ 0.982 µg/mL) | 11.5 µM (≈ 4.02 µg/mL) | 2.81 µM (≈ 0.982 µg/mL) | 11.5 µM (≈ 4.02 µg/mL) | 11.5 µM (≈ 4.02 µg/mL) | 11.5 µM (≈ 4.02 µg/mL) | MBC [17]: 11.5 µM (≈ 4.02 µg/mL); MBC [18]: 11.5 µM (≈ 4.02 µg/mL)
6 | NNC(=O)c1ccncc1 [INH, isoniazid, reference compound] |  |  | 117 µM (≈ 16 µg/mL) |  |  |  |  |  |  |  |  |  |  |  |  |  |  |  |  |  | MIC [19]: 36.6 µM (≈ 5.02 µg/mL)
